# Measurements from PubChem BioAssay (NCI).
#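 At the GI50, growth is halved. TGI marks complete inhibition of growth.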
# Columns and labels:
# Experiment in all cases: NCI anticancer screen, dose series, 384-well format
# MOLT-4 leukemia = system: MOLT-4 leukemia
# IGROV1 ovarian = system: IGROV1 ovarian
# HT29 colon = system: HT29 colon
# SK-MEL-2 melanoma = system: SK-MEL-2 melanoma
# MDA-MB-435 melanoma = system: MDA-MB-435 melanoma
# NCI-H522 lung = system: NCI-H522 lung
# SK-MEL-5 melanoma = system: SK-MEL-5 melanoma
# PC-3 prostate = system: PC-3 prostate
# MCF7 breast = system: MCF7 breast
# CAKI-1 renal = system: CAKI-1 renal
# M14 melanoma = system: M14 melanoma
# SNB-75 CNS = system: SNB-75 CNS
# KM12 colon = system: KM12 colon
# SF-539 CNS = system: SF-539 CNS
# NCI-H460 NSCLC = system: NCI-H460 NSCLC
# SNB-19 CNS = system: SNB-19 CNS
# ACHN renal = system: ACHN renal
# BT-549 breast = system: BT-549 breast
# OVCAR-3 ovarian = system: OVCAR-3 ovarian
# MDA-MB-468 breast = system: MDA-MB-468 breast
# U251 glioblastoma = system: U251 glioblastoma
# OVCAR-5 ovarian = system: OVCAR-5 ovarian
# HOP-92 NSCLC = system: HOP-92 NSCLC
# SF-295 CNS = system: SF-295 CNS
# NCI-H226 lung = system: NCI-H226 lung
# SW-620 colon = system: SW-620 colon
# SK-OV-3 ovarian = system: SK-OV-3 ovarian
# HCT-116 colon = system: HCT-116 colon
# A498 renal = system: A498 renal
# DU-145 prostate = system: DU-145 prostate
# EKVX NSCLC = system: EKVX NSCLC
# NCI-H322M lung = system: NCI-H322M lung
# HOP-62 NSCLC = system: HOP-62 NSCLC
# UO-31 renal = system: UO-31 renal
# HL-60(TB) leukemia = system: HL-60(TB) leukemia
# MALME-3M melanoma = system: MALME-3M melanoma
# COLO 205 colon = system: COLO 205 colon
# 786-0 renal = system: 786-0 renal
# TK-10 renal = system: TK-10 renal
# NCI/ADR-RES ovarian = system: NCI/ADR-RES ovarian
# UACC-257 melanoma = system: UACC-257 melanoma
# T-47D breast = system: T-47D breast
# CCRF-CEM leukemia = system: CCRF-CEM leukemia
# HS 578T breast = system: HS 578T breast
# K-562 leukemia = system: K-562 leukemia
# SF-268 CNS = system: SF-268 CNS
# SK-MEL-28 melanoma = system: SK-MEL-28 melanoma
# SR leukemia = system: SR leukemia
# SN12C renal = system: SN12C renal
# HCT-15 colon = system: HCT-15 colon
# A549 NSCLC = system: A549 NSCLC
# OVCAR-4 ovarian = system: OVCAR-4 ovarian
# NCI-H23 lung = system: NCI-H23 lung
# LOX IMVI melanoma = system: LOX IMVI melanoma
# MDA-MB-231 breast = system: MDA-MB-231 breast
# UACC-62 melanoma = system: UACC-62 melanoma
# RXF 393 renal = system: RXF 393 renal
# RPMI-8226 leukemia = system: RPMI-8226 leukemia
smiles,measurement,setting,value
C[C@@H](Oc1ccc(Oc2cnc3ccc(Cl)cc3n2)cc1)C(=O)O,GI50,MOLT-4 leukemia,1.46 µM
same,TGI,MOLT-4 leukemia,2.82 µM
same,GI50,IGROV1 ovarian,73.1 µM
same,TGI,IGROV1 ovarian,> 100 µM
same,GI50,HT29 colon,> 100 µM
same,TGI,HT29 colon,> 100 µM
same,GI50,SK-MEL-2 melanoma,> 100 µM
same,TGI,SK-MEL-2 melanoma,> 100 µM
same,GI50,MDA-MB-435 melanoma,> 100 µM
same,TGI,MDA-MB-435 melanoma,> 100 µM
same,GI50,NCI-H522 lung,25.9 µM
same,TGI,NCI-H522 lung,> 100 µM
same,GI50,SK-MEL-5 melanoma,62.5 µM
same,TGI,SK-MEL-5 melanoma,> 100 µM
same,GI50,PC-3 prostate,> 100 µM
same,TGI,PC-3 prostate,> 100 µM
same,GI50,MCF7 breast,22.5 µM
same,TGI,MCF7 breast,> 100 µM
same,GI50,CAKI-1 renal,85.3 µM
same,TGI,CAKI-1 renal,> 100 µM
same,GI50,M14 melanoma,> 100 µM
same,TGI,M14 melanoma,> 100 µM
same,GI50,SNB-75 CNS,> 100 µM
same,TGI,SNB-75 CNS,> 100 µM
same,GI50,KM12 colon,> 100 µM
same,TGI,KM12 colon,> 100 µM
same,GI50,SF-539 CNS,97.1 µM
same,TGI,SF-539 CNS,> 100 µM
same,GI50,NCI-H460 NSCLC,6.16 µM
same,TGI,NCI-H460 NSCLC,> 100 µM
same,GI50,SNB-19 CNS,> 100 µM
same,TGI,SNB-19 CNS,> 100 µM
same,GI50,ACHN renal,32.1 µM
same,TGI,ACHN renal,> 100 µM
same,GI50,BT-549 breast,58.3 µM
same,TGI,BT-549 breast,> 100 µM
same,GI50,OVCAR-3 ovarian,> 100 µM
same,TGI,OVCAR-3 ovarian,> 100 µM
same,GI50,MDA-MB-468 breast,24.8 µM
same,TGI,MDA-MB-468 breast,> 100 µM
same,GI50,U251 glioblastoma,63.9 µM
same,TGI,U251 glioblastoma,> 100 µM
same,GI50,OVCAR-5 ovarian,> 100 µM
same,TGI,OVCAR-5 ovarian,> 100 µM
same,GI50,HOP-92 NSCLC,96.4 µM
same,TGI,HOP-92 NSCLC,> 100 µM
same,GI50,SF-295 CNS,33.2 µM
same,TGI,SF-295 CNS,> 100 µM
same,GI50,NCI-H226 lung,> 100 µM
same,TGI,NCI-H226 lung,> 100 µM
same,GI50,SW-620 colon,43.4 µM
same,TGI,SW-620 colon,> 100 µM
same,GI50,SK-OV-3 ovarian,> 100 µM
same,TGI,SK-OV-3 ovarian,> 100 µM
same,GI50,HCT-116 colon,77.4 µM
same,TGI,HCT-116 colon,> 100 µM
same,GI50,A498 renal,86.9 µM
same,TGI,A498 renal,> 100 µM
same,GI50,DU-145 prostate,45.4 µM
same,TGI,DU-145 prostate,> 100 µM
same,GI50,EKVX NSCLC,> 100 µM
same,TGI,EKVX NSCLC,> 100 µM
same,GI50,NCI-H322M lung,> 100 µM
same,TGI,NCI-H322M lung,> 100 µM
same,GI50,HOP-62 NSCLC,43.3 µM
same,TGI,HOP-62 NSCLC,> 100 µM
same,GI50,UO-31 renal,87.1 µM
same,TGI,UO-31 renal,> 100 µM
same,GI50,HL-60(TB) leukemia,4.5 µM
same,TGI,HL-60(TB) leukemia,26.1 µM
same,GI50,MALME-3M melanoma,> 100 µM
same,TGI,MALME-3M melanoma,> 100 µM
same,GI50,COLO 205 colon,28.6 µM
same,TGI,COLO 205 colon,> 100 µM
same,GI50,786-0 renal,> 100 µM
same,TGI,786-0 renal,> 100 µM
same,GI50,TK-10 renal,61.4 µM
same,TGI,TK-10 renal,> 100 µM
same,GI50,NCI/ADR-RES ovarian,78.3 µM
same,TGI,NCI/ADR-RES ovarian,> 100 µM
same,GI50,UACC-257 melanoma,> 100 µM
same,TGI,UACC-257 melanoma,> 100 µM
same,GI50,T-47D breast,> 100 µM
same,TGI,T-47D breast,> 100 µM
same,GI50,CCRF-CEM leukemia,3.68 µM
same,TGI,CCRF-CEM leukemia,> 100 µM
same,GI50,HS 578T breast,> 100 µM
same,TGI,HS 578T breast,> 100 µM
same,GI50,K-562 leukemia,53.3 µM
same,TGI,K-562 leukemia,> 100 µM
same,GI50,SF-268 CNS,> 100 µM
same,TGI,SF-268 CNS,> 100 µM
same,GI50,SK-MEL-28 melanoma,> 100 µM
same,TGI,SK-MEL-28 melanoma,> 100 µM
same,GI50,SR leukemia,1.71 µM
same,TGI,SR leukemia,4.65 µM
same,GI50,SN12C renal,> 100 µM
same,TGI,SN12C renal,> 100 µM
same,GI50,HCT-15 colon,73.7 µM
same,TGI,HCT-15 colon,> 100 µM
same,GI50,A549 NSCLC,42.6 µM
same,TGI,A549 NSCLC,> 100 µM
same,GI50,OVCAR-4 ovarian,> 100 µM
same,TGI,OVCAR-4 ovarian,> 100 µM
same,GI50,NCI-H23 lung,> 100 µM
same,TGI,NCI-H23 lung,> 100 µM
same,GI50,LOX IMVI melanoma,> 100 µM
same,TGI,LOX IMVI melanoma,> 100 µM
same,GI50,MDA-MB-231 breast,> 100 µM
same,TGI,MDA-MB-231 breast,> 100 µM
same,GI50,UACC-62 melanoma,36.5 µM
same,TGI,UACC-62 melanoma,> 100 µM
same,GI50,RXF 393 renal,97.5 µM
same,TGI,RXF 393 renal,> 100 µM
same,GI50,RPMI-8226 leukemia,> 100 µM
same,TGI,RPMI-8226 leukemia,> 100 µM
